Test results reported in patent publication US7279336B2, “Methods and compositions for enhanced plant cell transformation” (priority 2002, dated 2007).

What was measured:
[1] = tested on: immature zygotic embryos of the maize hybrid line Hi II; assay: Agrobacterium tumefaciens (EHA101, standard binary vector pTF102) transformation of maize Hi II immature zygotic embryos
Experimental: A. tumefaciens strain EHA101 (Hood et al., 1986) containing the standard binary vector pTF102 (12.1 kb) was used in all experiments. […] This vector system, pTF 102 in EHA 101, was maintained on yeast extract peptone (YEP) medium (An et al., 1988) containing 100 mg/L spectinomycin (for pTF102) and 50 mg/L kanamycin (for EHA101). Bacteria cultures for weekly experiments were initiated from stock plates that were stored for up to 1 month at 4° C. before being refreshed from long-term, 80° C. glycerol stocks. In all experiments, bacteria cell densities were adjusted to an optical density (OD550) between 0.35 to 0.45 using a spectrophotometer immediately before embryo infection.
F2 immature zygotic embryos (1.5-2.0 mm) of the maize (Zea mays) Hi II hybrid genotype (Armstrong et al., 1991) were aseptically dissected from greenhouse-grown ears harvested 10 to 13 d post pollination. Ears were stored up to 3 d at 4° C. before dissection.
Infection, cocultivation, resting, and selection media were after Zhao et al. (1999) except that cocultivation medium was modified to contain Cys. All these media contained N6 salts and vitamins (Chu et al., 1975), 1.5 mg/L 2,4-dichlorophenoxyacetic acid, and 0.7 g L1 L-Pro in addition to the following ingredients: infection medium contained 68.4 g/L Suc and 36 g/L Glc (pH 5.2) and was supplemented with 100 μM AS (Sigma, St. Louis) before use; cocultivation medium contained 30 g/L Suc, 0.85 mg/L silver nitrate, 100 μM AS, and 3 g/L gelrite (pH 5.8); resting medium contained 30 g/L Suc, 0.5 g/L MES, 0.85 mg/L silver nitrate, 250 mg/L cefotaxime, and 8 g/L purified agar (pH 5.8). Selection medium was identical to resting medium with the addition of 1.5 or 3 mg/L bialaphos (Shinyo Sanyo, Tokyo). Infection medium was filter sterilized, whereas all other media were autoclaved. AS stock solutions (100 mM) were prepared by dissolving AS in 100% (v/v) dimethyl sulfoxide (DMSO) to make a 200 mM stock which was then diluted (1:1 [v/v]) with sterile water and stored in small aliquots at 20° C. Cys was added to cocultivation medium after autoclaving from freshly prepared, filter-sterilized stocks (100 mg/mL) and cocultivation medium was used within 2 to 5 d of preparation. Regeneration I medium contained Murashige and Skoog salts and vitamins (Murashige and Skoog, 1962), 60 g/L Suc, 100 mg/L myo-inositol, no hormones, and 3 g/L gelrite (pH 5.8) after Armstrong and Green (1985). Cefotaxime (250 mg/L) and bialaphos (3 mg/L) were added to this medium after autoclaving. Regeneration II medium differed from medium I in that it contained 30 g/L Suc and no bialaphos.

Japonica rice explants = settings: 80 mg/L Cys; cited from earlier work
maize immature embryos = assay: Maize transformation experiments with control or histone H2A-1 T-DNA binary vector, with or without anti-oxidant; type: cell-based
Text: 2. Kan Wang at the Plant Transformation Facility, Iowa State University tested for the present invention in two different Agrobacterium strains. One contains a T-DNA binary vector with a herbicide resistance gene in the T-DNA (this is the control construction)1. The other strain contains a similar T-DAN binary vector, but in addition to the herbicide resistance gene the T-DNA contains the Arabidopsis histone H2A-1 cDNA under the control of maize adh1 promoter and intron. These strains were used in four rounds of maize transformation experiments. […] Several thousand transformations (using the control vector without the histone gene) produced virtually no transformants. In these experiments, there were no transformants (using the control strain) without L-cysteine.

N[C@@H](CS)C(=O)O [L-cysteine]
T-DNA delivery to embryogenic-competent scutellum cells of infected embryos ([1]; 400 mg/L Cys in cocultivation medium): increased | stable transformation rates ([1]; Cys as low as 100 mg/L, compared with 400 mg/L, better embryo recovery): Comparable | transient glucuronidase expression in targeted cells ([1]; L-cysteine in cocultivation medium, 400 mg/L): improvement | embryo response after cocultivation ([1]; L-cysteine in cocultivation medium, 400 mg/L vs 0 mg/L): decrease | impact on embryogenesis (Japonica rice explants): negative impact | infected immature embryos giving transformants (maize immature embryos; control vector without histone gene, with L-cysteine, no transformants without L-cysteine): 2-3% | transformation (maize immature embryos; histone gene vector and L-cysteine): 2-3%
